The values that follow come from patent US20240217957A1, “HETEROCYCLIC COMPOUND AND USE THEREOF” (TAKEDA PHARMACEUTICAL COMPANY LIMITED, priority 2022, published 2024).

The target of one test is T1, human OX2 receptor (Homo sapiens, UniProt O43614).
T1 construct: expressed in transfected cells
T1 sequence (O43614 1-444): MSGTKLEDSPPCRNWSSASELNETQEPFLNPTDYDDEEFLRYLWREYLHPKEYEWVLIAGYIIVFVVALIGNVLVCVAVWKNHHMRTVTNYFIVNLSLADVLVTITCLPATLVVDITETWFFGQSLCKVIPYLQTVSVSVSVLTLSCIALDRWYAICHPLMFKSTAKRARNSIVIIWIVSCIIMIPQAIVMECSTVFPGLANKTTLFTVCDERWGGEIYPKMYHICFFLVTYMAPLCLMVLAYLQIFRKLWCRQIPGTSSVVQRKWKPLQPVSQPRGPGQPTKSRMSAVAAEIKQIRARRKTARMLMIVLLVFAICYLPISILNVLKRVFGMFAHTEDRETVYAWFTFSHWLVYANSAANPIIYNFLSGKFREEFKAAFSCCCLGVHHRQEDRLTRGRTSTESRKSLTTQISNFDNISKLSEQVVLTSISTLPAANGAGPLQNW
In words: Measurement of orexin type 2 receptor agonist activity (calcium fluorescence, Fluo-4 AM, FDSS). Format: cell-based. The note with it: compound at 3 μM; CHO cells forcibly expressing human OX2 receptor; DMSO = 0%, 10 nM orexin A (human) = 100%. In outline: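 Agonist response is expressed as % of the fluorescence change given by 10 nM human orexin A, with DMSO as 0%, read over 1 min 40 s on FDSS after compound addition. Cells: stable human OX2 (1-444) CHO-K1 clones, dye-loaded with Fluo-4 AM plus probenecid in HEPES-buffered HBSS with 0.1% BSA.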

In the next test the test system is cynomolgus monkeys. In words: Evaluation of wake-promoting effects in cynomolgus monkeys (EEG, EMG, locomotor activity). The following applies: 3 mg/kg p.o. at zeitgeber time 12, male cynomolgus monkeys, time spent in wakefulness for 4 hours after administration. Format: in vivo, cynomolgus monkey. How it is done: The wake-promoting effects were evaluated by measuring the electroencephalogram (EEG), electromyogram (EMG) and locomotor activity in cynomolgus monkeys. Under isoflurane anesthesia (0.5-5%, Pfizer Japan Inc., Tokyo, Japan), male cynomolgus monkeys (2-3 years old, Hamri Co., Ltd., Ibaraki, Japan) were surgically implanted with radio-telemetry transmitters (L03-F3, Data Sciences International Inc., MN, USA). The two EEG electrodes were stereotaxically positioned at the parietal area and secured to the cranium with stainless-steel screws in contact with the dura. Bilateral EMG electrodes were implanted into the back cervical muscles.
After at least a 1-month recovery period in home cages, the monkeys were habituated to the recording chamber (an acrylic cage 60 W×55 D×75 H (cm)) located in a soundproof and electrically shielded room by the time animals sleep sufficiently in the experimental room. Cortical EEG, EMG and locomotor activity were recorded using the telemetry system (PhysioTel Digital telemetry platform, Data Sciences International Inc.). The signals were semi-automatically scored in 20-second epochs by a sleep scoring system (SleepSign, Kissei Comtec Co., Ltd., Nagano, Japan).
Test compound (3 mg/kg) suspended in 0.5% methylcellulose aqueous solution or vehicle (i.e., 0.5% methylcellulose aqueous solution) was administered orally (p.o.) to monkeys at zeitgeber time 12 in a volume of 5 mL/kg body weight with a pretest-posttest design (n=2), and then EEG, EMG and locomotor activity were recorded. The time spent in wakefulness for 4 hours after administration (% of vehicle treatment) was calculated by using SleepSign.

On to `CS(=O)(=O)N[C@@H]1CN(C2=NO[C@](CF)(c3ncc(F)cc3-c3c(F)cccc3F)C2)CC1(F)F` [Example 109, N-[(3R)-1-{(5S)-5-[3-(2,6-difluorophenyl)-5-fluoropyridin-2-yl]-5-(fluoromethyl)-4,5-dihydro-1,2-oxazol-3-yl}-4,4-difluoropyrrolidin-3-yl]methanesulfonamide], for which the “OX2R agonist activity (3 μM, %)” value on human OX2 receptor was determined as 101%. In addition, the “Wakefulness time (% of vehicle treatment) (Mean, n = 2)” value in the test with cynomolgus monkeys was 558.37 % of vehicle treatment.

Turning to `C[C@@]1(c2ncc(F)cc2-c2c(F)cccc2F)CC(N2C[C@@H](NS(C)(=O)=O)C(F)(F)C2)=NO1` [Example 165, N-[(3R)-1-{(5S)-5-[3-(2,6-difluorophenyl)-5-fluoropyridin-2-yl]-5-methyl-4,5-dihydro-1,2-oxazol-3-yl}-4,4-difluoropyrrolidin-3-yl]methanesulfonamide], on human OX2 receptor, the “OX2R agonist activity (3 μM, %)” value worked out at 100%. Also, the “Wakefulness time (% of vehicle treatment) (Mean, n = 2)” value in the test with cynomolgus monkeys was 716.25 % of vehicle treatment.

As for `O=S(=O)(CF)N[C@@H]1CN(C2=NO[C@](CF)(c3ncc(F)cc3-c3c(F)cccc3F)C2)CC1(F)F` [Example 149, N-[(3R)-1-{(5S)-5-[3-(2,6-difluorophenyl)-5-fluoropyridin-2-yl]-5-(fluoromethyl)-4,5-dihydro-1,2-oxazol-3-yl}-4,4-difluoropyrrolidin-3-yl]-1-fluoromethanesulfonamide], the “OX2R agonist activity (3 μM, %)” value at human OX2 receptor came to 96%. Also, in the test with cynomolgus monkeys, the “Wakefulness time (% of vehicle treatment) (Mean, n = 2)” value was 282.21 % of vehicle treatment.

As for `Cc1cnc([C@@H]2CC(N3C[C@@H](NS(C)(=O)=O)C(F)(F)C3)=NO2)c(-c2c(F)cc(F)cc2F)c1` [Example 11, N-[(3R)-4,4-difluoro-1-{(5S)-5-[5-methyl-3-(2,4,6-trifluorophenyl)pyridin-2-yl]-4,5-dihydro-1,2-oxazol-3-yl}pyrrolidin-3-yl]methanesulfonamide], the “OX2R agonist activity (3 μM, %)” value at human OX2 receptor is recorded as 96%. Besides, the “Wakefulness time (% of vehicle treatment) (Mean, n = 2)” value in the test on cynomolgus monkeys was 638.80 % of vehicle treatment.
